Reference: BindingDB's records for patent US11472769 (Eccogene (Shanghai) Co., Ltd., 2022)

Target: T1, Amine oxidase [copper-containing] 3 (Homo sapiens, UniProt Q16853)
T1 construct: gene AOC3
Assay: SSAO Activity Assay
Description: Amine oxidase activity of recombinant hSSAO, hMAO-A, and hMAO-B isoforms are measured using the MAO-Glo assay kit (Promega, V1402). Ten nL test compounds (with DMSO as vehicle, 0.1% v/v for hSSAO, hMAO-A and hMAO-B) were added into assay plates by Echo, and pre-incubated with 5 μL of enzyme for 30 mins at room temperature before the addition of 5 μL of luminogenic substrate. The substrate concentration is 40 μM for human recombinant SSAO, 40 μM for human recombinant MAO-A, and 4 μM for human recombinant MAO-B. The hSSAO and hMAO-A assays were conducted in the MAO-A reaction buffer in the kit, and the MAO-B assay was conducted in the MAO-B reaction buffer. Oxidation of the substrate was conducted for 1 hr, before the addition of detecting reagent according the manufacture's protocol. The IC50 value of the tested compounds was calculated by fitting the dose response curve using a 4-parameter non-linear regression routine.

T1 sequence (Q16853 whole entry, looked up): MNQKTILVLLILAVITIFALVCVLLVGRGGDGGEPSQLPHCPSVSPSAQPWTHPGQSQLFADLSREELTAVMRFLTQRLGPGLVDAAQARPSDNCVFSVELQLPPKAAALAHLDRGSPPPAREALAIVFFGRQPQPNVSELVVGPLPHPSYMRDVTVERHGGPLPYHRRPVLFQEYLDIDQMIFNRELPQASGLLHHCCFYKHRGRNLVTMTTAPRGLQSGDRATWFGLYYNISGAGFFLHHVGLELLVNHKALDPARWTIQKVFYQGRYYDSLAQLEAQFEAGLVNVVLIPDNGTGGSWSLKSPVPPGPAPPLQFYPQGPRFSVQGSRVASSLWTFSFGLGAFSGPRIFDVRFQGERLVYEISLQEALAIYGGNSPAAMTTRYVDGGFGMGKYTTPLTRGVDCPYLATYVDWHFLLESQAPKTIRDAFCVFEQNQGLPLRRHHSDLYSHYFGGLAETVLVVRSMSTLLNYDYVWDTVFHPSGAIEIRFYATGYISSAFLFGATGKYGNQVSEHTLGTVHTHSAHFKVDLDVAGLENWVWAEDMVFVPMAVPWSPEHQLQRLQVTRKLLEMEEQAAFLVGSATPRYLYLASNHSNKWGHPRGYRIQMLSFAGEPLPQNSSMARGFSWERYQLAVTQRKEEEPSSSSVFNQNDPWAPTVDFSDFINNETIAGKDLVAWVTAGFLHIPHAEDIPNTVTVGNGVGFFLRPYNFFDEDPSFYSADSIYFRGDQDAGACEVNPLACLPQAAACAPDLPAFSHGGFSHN

Compound	IC50
NC/C(=C\F)COc1ccc(S(=O)(=O)CC2CCOCC2)cc1 [US11472769, Compound 1]	< 20 nM
CC1(CS(=O)(=O)c2ccc(OC/C(=C/F)CN)cc2)CCOCC1 [US11472769, Compound 5]	< 20 nM
CC1(CS(=O)(=O)c2ccc(OC/C(=C/F)CN)cc2F)CCOCC1 [US11472769, Compound 7]	< 20 nM
NC/C(=C\F)COc1ccc(S(=O)(=O)CC2CCOCC2)cc1F [US11472769, Compound 9]	< 20 nM
NC/C(=C\F)COc1ccc(S(=O)(=O)C[C@H]2CC[C@H](O)CC2)cc1 [US11472769, Compound 14]	in the range around 60 nM
NC/C(=C\F)COc1ccc(S(=O)(=O)C[C@H]2CC[C@@H](O)CC2)cc1 [US11472769, Compound 15]	< 20 nM
NC/C(=C\F)COc1ccc(S(=O)(=O)CC23CCC(C4(O)CC4)(CC2)CC3)cc1 [US11472769, Compound 18]	< 20 nM
CO[C@H]1CC[C@H](CS(=O)(=O)c2ccc(OC/C(=C/F)CN)cc2)CC1 [US11472769, Compound 19]	< 20 nM
CO[C@H]1CC[C@@H](CS(=O)(=O)c2ccc(OC/C(=C/F)CN)cc2)CC1 [US11472769, Compound 20]	< 20 nM
NC/C(=C\F)COc1ccc(S(=O)(=O)C[C@@H]2CCOC2)cc1 [US11472769, Compound 21]	in the range around 60 nM
NC/C(=C\F)COc1ccc(S(=O)(=O)C[C@H]2CCOC2)cc1 [US11472769, Compound 22]	in the range around 60 nM
NC/C(=C\F)COc1ccc(S(=O)(=O)C[C@@H]2CCCO2)cc1 [US11472769, Compound 23]	in the range around 60 nM
NC/C(=C\F)COc1ccc(S(=O)(=O)C[C@H]2CCCO2)cc1 [US11472769, Compound 24]	< 20 nM
COCS(=O)(=O)c1ccc(OC/C(=C/F)CN)cc1 [US11472769, Compound 28]	< 20 nM
NC/C(=C\F)COc1ccc(S(=O)(=O)COCC2CCOCC2)cc1 [US11472769, Compound 30]	< 20 nM
NC/C(=C\F)COc1ccc(S(=O)(=O)CC2CCN(C(=O)c3ccc(F)cc3)CC2)cc1 [US11472769, Compound 39]	< 20 nM
NC/C(=C\F)COc1ccc(S(=O)(=O)Cc2ccc(C(=O)N3CCCC3)cc2)cc1 [US11472769, Compound 46]	in the range around 60 nM
NC/C(=C\F)COc1ccc(S(=O)(=O)CC23CCC(C(=O)NC4CCC4)(CC2)CC3)cc1 [US11472769, Compound 64]	< 20 nM
NC/C(=C\F)COc1ccc(S(=O)(=O)CC23CCC(NC(=O)C4CC4)(CC2)CC3)cc1 [US11472769, Compound 76]	< 20 nM

Compound	IC50
NC/C(=C\F)COc1ccc(S(=O)(=O)CC23CCC(NC(=O)CC(F)(F)F)(CC2)CC3)cc1 [US11472769, Compound 79]	< 20 nM
NC/C(=C\F)COc1ccc(S(=O)(=O)CC23CCC(N4CCCS4(=O)=O)(CC2)CC3)cc1 [US11472769, Compound 82]	< 20 nM
CC1CCN(C23CCC(CS(=O)(=O)c4ccc(OC/C(=C/F)CN)cc4)(CC2)CC3)C1=O (configuration not stated) [US11472769, Compound 83]	< 20 nM
N#CC12CCC(CS(=O)(=O)c3ccc(OC/C(=C/F)CN)cc3)(CC1)CC2 [US11472769, Compound 87]	< 20 nM
NC/C(=C\F)COc1ccc(S(=O)(=O)C[C@H]2CC[C@H](NC(=O)C3CC3)CC2)cc1 [US11472769, Compound 88]	< 20 nM
C[C@H](CN1CCCC1=O)CS(=O)(=O)c1ccc(OC/C(=C/F)CN)cc1 [US11472769, Compound 93]	> 500 nM
C[C@@H](CN1CCCC1=O)CS(=O)(=O)c1ccc(OC/C(=C/F)CN)cc1 [US11472769, Compound 94]	in the range around 60 nM
CC(C)C(=O)N(C)CC(C)(C)CS(=O)(=O)c1ccc(OC/C(=C/F)CN)cc1 [US11472769, Compound 96]	< 20 nM
NC/C(=C\F)COc1ccc(S(=O)(=O)CC2CCCN(C(=O)C3CCCC3)C2)cc1 (configuration not stated) [US11472769, Compound 100]	in the range around 60 nM
CC(C)n1nc(CS(=O)(=O)c2ccc(OC/C(=C/F)CN)cc2)ccc1=O [US11472769, Compound 102]	< 20 nM
C[C@H](CN1CCCCC1=O)CS(=O)(=O)c1ccc(OC/C(=C/F)CN)cc1 [US11472769, Compound 104]	in the range around 60 nM
C[C@@H](CN1CCCCC1=O)CS(=O)(=O)c1ccc(OC/C(=C/F)CN)cc1 [US11472769, Compound 105]	in the range around 60 nM
C[C@H](CN1CCC2(CCCC2)C1=O)CS(=O)(=O)c1ccc(OC/C(=C/F)CN)cc1 [US11472769, Compound 109]	in the range around 60 nM
C[C@@H](CN1CCC2(CCCC2)C1=O)CS(=O)(=O)c1ccc(OC/C(=C/F)CN)cc1 [US11472769, Compound 110]	in the range around 60 nM
C[C@H](CN1CCOCC1)CS(=O)(=O)c1ccc(OC/C(=C/F)CN)cc1 [US11472769, Compound 112]	in the range around 60 nM
C[C@@H](CN1CCOCC1)CS(=O)(=O)c1ccc(OC/C(=C/F)CN)cc1 [US11472769, Compound 113]	< 20 nM
NC/C(=C/F)COc1ccc(S(=O)(=O)CC23CCC(NC(=O)C4CC4)(CC2)CC3)cc1 [US11472769, Compound 139]	< 20 nM
NC/C(=C\F)COc1ccc(S(=O)(=O)CC23CCC(C(=O)O)(CC2)CC3)cc1 [US11472769, Compound 146]	in the range around 60 nM
